We go through 2 molecules from patent US9232796B2, “Herbicidal compositions comprising 4-amino-3-chloro-5-fluoro-6-(4-chloro-2-fluoro-3-methoxyphenyl) pyridine-2-carboxylic acid or a derivative thereof and acetyl-CoA carboxylase (ACCase) inhibitors” (DOW AGROSCIENCES LLC, priority 2012, dated 2016).

One assay deals with ECHCG. The experiment in a line: Example VI in-water applied ternary mixtures, greenhouse, transplanted paddy rice weeds. The class given is in vivo, Echinochloa crus-galli (L.) Beauv. Particulars: Table 68, 22.5 gai/ha, 21 DAA. Here is the method: Weed seeds or nutlets of the desired test plant species were planted in puddled soil (mud) prepared by mixing a shredded, non-sterilized mineral soil (50.5 percent silt, 25.5 percent clay, and 24 percent sand, with a pH of about 7.6 and an organic matter content of about 2.9 percent) and water at a 1:1 volumetric ratio. The prepared mud was dispensed in 365 mL aliquots into 16-ounce (oz.) non-perforated plastic pots with a surface area of 86.59 square centimeters (cm^2) leaving a headspace of 3 centimeters (cm) in each pot. Mud was allowed to dry overnight prior to planting or transplanting. Rice seeds were planted in Sun Gro MetroMix® 306 planting mixture, which typically has a pH of 6.0 to 6.8 and an organic matter content of about 30 percent, in plastic plug trays. Seedlings at the second or third leaf stage of growth were transplanted into 860 mL of mud contained in 32-oz. non-perforated plastic pots with a surface area of 86.59 cm^2 4 days prior to herbicide application. The paddy was created by filling the headspace of the pots with 2.5 to 3 cm of water. When required to ensure good germination and healthy plants, a fungicide treatment and/or other chemical or physical treatment was applied. The plants were grown for 4-22 days in a greenhouse with an approximate 14 hr. photoperiod which was maintained at about 29° C. during the day and 26° C. during the night. Nutrients were added as Osmocote® (19:6:12, N:P:K+minor nutrients) at 2 g per 16-oz. pot and 4 g per 32-oz. pot. Water was added on a regular basis to maintain the paddy flood, and supplemental lighting was provided with overhead metal halide 1000-Watt lamps as necessary. The plants were employed for testing when they reached the first through fourth true leaf stage.
Treatments consisted of the benzyl ester of 4-amino-3-chloro-5-fluoro-6-(4-chloro-2-fluoro-3-methoxy-phenyl)pyridine-2-carboxylic acid (Compound A), formulated as an SC (suspension concentrate), an ACCase inhibitor herbicide, and a third herbicidal component, each applied alone and in ternary combination. Forms of compound A were applied on an acid equivalent basis.
The ACCase inhibitor component was applied on an active ingredient basis and included cyhalofop-R-butyl formulated as Clincher® G and metamifop formulated as Metamifop EC. Other herbicidal components were applied on an active ingredient or acid equivalent basis depending on the compound and included penoxsulam formulated as Grasp® SC, bentazon sodium formulated as Basagran®, triclopyr […] (TEA) salt formulated as Grandstand® R, benzobicyclon formulated as Benzobicyclon, benfuresate formulated as Full Slot® WG, pyraclonil formulated as Pyraclon® Flowable, mefenacet (technical grade material), and pretilachlor (technical grade material).
Treatment requirements for each compound or herbicidal component were calculated based upon the rates being tested, the concentration of active ingredient or acid equivalent in the formulation, an application volume of 1 mL per component per pot, and an application area of 86.59 cm^2 per pot.
For formulated compounds, a measured amount was placed in an individual 100 or 200 mL glass vial and was dissolved in a volume of 1.25% (v/v) Agri-Dex® crop oil concentrate to obtain application solutions.
For technical grade compounds, a weighed amount was placed in an individual 100 to 200 mL glass vial and was dissolved in a volume of acetone to obtain concentrated stock solutions.
Applications were made by injecting with a pipetter appropriate amounts of the application solutions, into the aqueous layer of the paddy. Control plants were treated in the same manner with the solvent blank. Applications were made so that all treated plant material received the same concentrations of acetone and crop oil concentrate.
The treated plants and control plants were placed in a greenhouse as described above and water was added as needed to maintain a paddy flood. […]

A further assay deals with SCPMA. The description is as above. The settings on record: Table 68, pyraclonil 22.5 gai/ha. The class given is in vivo.
Another assay deals with DIGSA. Kind of assay: Example I postemergence foliar-applied, greenhouse, direct seeded rice weeds. The class given is in vivo, Digitaria sanguinalis (L.) Scop. The settings on record: 70 gai/ha. From the text: (§1) Seeds or nutlets of the desired test plant species were planted in a soil matrix prepared by mixing a loam or sandy loam soil (e.g., 28.6 percent silt, 18.8 percent clay, and 52.6 percent sand, with a pH of about 5.8 and an organic matter content of about 1.8 percent) and calcareous grit in an 80 to 20 ratio. The soil matrix was contained in plastic pots with a volume of 1 quart and a surface area of 83.6 square centimeters (cm^2). When required to ensure good germination and healthy plants, a fungicide treatment and/or other chemical or physical treatment was applied. The plants were grown for 8-22 days in a greenhouse with an approximate 14 hr. photoperiod which was maintained at about 29° C. during the day and 26° C. during the night. Nutrients (Peters Excel® 15-5-15 5-Ca 2-Mg and iron chelate) were applied in the irrigation solution as needed and water was added on a regular basis. Supplemental lighting was provided with overhead metal halide 1000-Watt lamps as necessary. The plants were employed for testing when they reached the first through fourth true leaf stage.
Treatments consisted of the acid or esters of 4-amino-3-chloro-5-fluoro-6-(4-chloro-2-fluoro-3-methoxy-phenyl)pyridine-2-carboxylic acid (Compound A), each formulated as an SC (suspension concentrate), and various herbicidal components alone and in combination. […]
(§2) Treatment requirements were calculated based upon the rates being tested, the concentration of active ingredient or acid equivalent in the formulation, and a 12 mL application volume at a rate of 187 L/ha.
For treatments comprised of formulated compounds, measured amounts of compounds were placed individually in 25 mL glass vials and diluted in a volume of 1.25% (v/v) Agri-Dex® crop oil concentrated to obtain 12× stock solutions. […]
(§3) The treated plants and control plants were placed in a greenhouse as described above and watered by sub-irrigation to prevent wash-off of the test compounds. After approximately 3 weeks, the condition of the test plants as compared with that of the untreated plants was determined visually and scored on a scale of 0 to 100 percent where 0 corresponds to no injury or growth inhibition and 100 corresponds to complete kill. […]

In a further assay the test system is BRAPP. The description is as above. The class given is in vivo, Brachiaria platyphylla (Griseb.) Nash. Particulars: 70 gai/ha.
Description: as §1
(§4) Treatments consisted of the acid or esters of 4-amino-3-chloro-5-fluoro-6-(4-chloro-2-fluoro-3-methoxy-phenyl)pyridine-2-carboxylic acid (Compound A), each formulated as an SC (suspension concentrate), and various herbicidal components alone and in combination.
(§5) Other herbicidal components were applied on an acid equivalent (ae) or active ingredient (ai) basis and included acetyl coA carboxylase (ACCase)-inhibiting herbicides (cyclohexanedione and aryloxyphenoxypropionate chemical classes) cyhalofop-butyl formulated as Clincher® SF (285 gr ai/L EC), diclofop-methyl formulated as Hoelon® 3EC, fenoxaprop-p-ethyl+isoxadifen-ethyl formulated as RiceStar® HT (0.58 lb./gal EC), fenoxaprop-p-ethyl+mefenpyr diethyl formulated as Puma® IEC, metamifop formulated as Metamifop EC, haloxyfop-methyl formulated as Gallant Super®, fluazifop-p-butyl formulated as Fusilade® DX, quizalofop-p-ethyl formulated as Assure® II, profoxydim formulated as Aura® 20EC, clethodim applied as Intensity®, sethoxydim formulated as Poast®, and tralkoxydim formulated as Achieve®.
as §2
(§6) For treatments comprised of formulated compounds, measured amounts of compounds were placed individually in 25 mL glass vials and diluted in a volume of 1.25% (v/v) Agri-Dex® crop oil concentrated to obtain 12× stock solutions. […] Application solutions were prepared by adding an appropriate amount of each stock solution (e.g., 1 mL) and diluted to the appropriate final concentrations with the addition of 10 mL of an aqueous mixture of 1.25% (v/v) crop oil concentrate so that the final spray solutions contained 1.25+/−0.05% (v/v) crop oil concentrate.
(§7) All stock solutions and applications solutions were visually inspected for compound compatibility prior to application. Spray solutions were applied to the plant material with an overhead Mandel track sprayer equipped with a 8002E nozzles calibrated to deliver 187 L/ha over an application area of 0.503 m^2 at a spray height of 18 to 20 inches (46 to 50 cm) above average plant canopy height. Control plants were sprayed in the same manner with the solvent blank.
as §3

For another assay, the system named is SCPJU. The assay is described as above. The class given is in vivo, Schoenoplectus juncoides (Roxb.) Palla.
Description: as §1, §4, §5, §2, §6, §7, §3

A further assay concerns CYPES. The assay is described as above. The format is in vivo, Cyperus esculentus L.
Description: as §1, §4, §5, §2, §6, §7, §3

For `C#CCN(C)c1c(C#N)cnn1-c1nn2c(c1Cl)CCCC2` [Pyraclonil], in the assay on ECHCG, the “Visual Weed Control (%) - 21 DAA ECHCG Obs” value came to 30%. In addition, the “Visual Weed Control (%) - 21 DAA SCPMA Obs” value with SCPMA came to 78%.
As to `CCSC(C)CC1CC(=O)C(/C(CC)=N/OC/C=C/Cl)=C(O)C1` (stereo not drawn) [Clethodim, 2-[1-[[[(2E)-3-chloro-2-propen-1-yl]oxy]imino]propyl]-5-[2-(ethylthio)propyl]-3-hydroxy-2-cyclohexen-1-one, reference compound], in the assay on DIGSA, the “Visual Weed Control (%) - 20 DAA DIGSA Obs” value is reported as 50%. For the same molecule, in the assay on BRAPP, the “Visual Weed Control (%) - 20 DAA BRAPP Obs” value stood at 10%. For the same molecule, the “Visual Weed Control (%) - 20 DAA SCPJU Obs” value in the assay on SCPJU (140 gai/ha) and in the assay on SCPJU (280 gai/ha) was 0% throughout. The “Visual Weed Control (%) - 20 DAA CYPES Obs” value in the assay on CYPES (70 gai/ha), with CYPES (140 gai/ha) and in the assay on CYPES (280 gai/ha) was 0% in each case.
